Data: publication PMC10683482, “Offsetting Low-Affinity Carbohydrate Binding with Covalency to Engage Sugar-Specific Proteins for Tumor-Immune Proximity Induction” (ACS Central Science, 2023)

How the values were obtained:
anti-23F antibody [1] = experiment: Kinetic SDS-PAGE fluorescence labelling kinetics; format: binding, human; conditions: rhamnose and antirhamnose antibody; approximated from KI
Description: Figure 2 Capacity of Rha-cARMs to specifically covalently engage monoclonal anti-23F and serum anti-rhamnose. A. Chemical structures of the molecules investigated. B. Assessment of covalent vs noncovalent (cARM/ARM) engagement of human serum antirhamnose antibody via an ELISA assay. Each ARM/cARM (2 μM) was incubated with 2% human serum for 48 h and subsequently incubated directly on a streptavidin ELISA plate. Recruitment was evaluated by the addition of anti-IgG or anti-IgM HRP-conjugated secondary antibody with subsequent chromogenic substrate addition. “Comp” represents the addition of competitor rhamnose (500 mM) during 48 h of incubation. […] D. Kinetic SDS-PAGE fluorescence imaging experiment to determine Rha-AI-cARM/anti-23F antibody labeling kinetics using A647-cARM (8). cARM 8 (2–100 μM) was incubated with anti-23F antibody (2 μM) for up to 4 h. A representative fluorescence gel image is included corresponding to compound 8 (50 μM) incubated with either anti-23F antibody or isotype human IgG. Densitometry analysis with ImageJ was used to quantify relative band intensities. […] The error is calculated by alternative fits of initial rates data (all within the linear labeling range). […]
Figure 4 Selectivity and kinetic analysis of optimized Rha-SO2F-cARMs A. Chemical structures of tool compounds used in this study. […] Kinetic fluorescence SDS-PAGE assay similar to that in Figure 2D. […]

anti-23F antibody [2] = experiment: Mass spectrometry study of anti-23F labelling; format: binding, human; conditions: 10 µM cARM, 2.7 µM anti-23F, 45 hours
Description: To further confirm selectivity, an MS study was conducted to determine the site of labeling (Figures S10 and S11). […] No other labeling site was detected on the light chain; however, the lability of the SO2F-serine/tyrosine linkage to MS sample preparation protocols likely limited complete labeling site coverage. […] Due to the low labeling efficiency of rhamnose-AI-cARM, no labeling site could be identified. […] Determining the selectivity for antirhamnose antibodies in the presence of off-target cell surface proteins will be the focus of future in vivo studies.
Mass Spectrometry Study – Anti-23F Labelling
Anti-23F (2.7 µM) was incubated with 10 µM of Biotin-AI-cAR M 4 or Biotin-SO2F-cAR M 12, or PBS (antibody only) for 45 hours before MS analysis. Analysis was completed by Bioinformatics Solutions
Inc. Briefly, for intact protein analysis each sample was treated with PNGase F to remove glycans followed by LC-MS analysis. To determine site of labelling, each sample was digested with tryspin, chymostrypsin, and pepsin then analyzed by LC-MS/MS on a timsTOF Pro. Peptide spectra were mapped to a known antibody sequence (anti -23F antibody, Creative Biolabs - PABX-173). No labelling was identified with acyl imidazole containing cARM 4. […]
approxima tely 30% labelling post MS protocol (Figure S11)
Figure S10. Sample analysis of peptide mapping of anti-23F heavy chain. Modification with cARM 12 is […]
(1 picture or pasted object on this page, not shown here)

[3] = system: human IgG (polyclonal antirhamnose antibodies); experiment: BLI monitoring of covalent reaction with human IgG (Figure 4B); format: binding; conditions: 10 μM cARM, 230 μM human IgG, up to 25 h
Source text: (§1) The design of rhamnose-SO2F-cARM was again supported by in-silico docking and predicted to preorganize electrophilic SO2F proximal to lysine 104 and serine 53 of the anti-23F heavy chain as well as tyrosine 32 of the light chain (Figure S3). To evaluate the capacity of rhamnose-SO2F-cARMs to specifically label polyclonal antirhamnose antibodies, a tool cARM with a biotin TBD was synthesized (compound 12, Figure 4A, Scheme S5). As an orthogonal kinetics assay to fluorescent gels, tool compound 12 labeling kinetics was first evaluated using an in-house BLI assay and compared to acyl imidazole cARM and ARM analogs. […] Solutions were immediately loaded onto streptavidin probes (Figure 4B, Figure S8). In this assay, rhamnose competition blocks noncovalent antirhamnose recruitment, thus the signal amplitude is directly proportional to the covalently labeled antibody product.
(§2) Figure 4 Selectivity and kinetic analysis of optimized Rha-SO2F-cARMs A. Chemical structures of tool compounds used in this study. B. cARM 12 (10 μM) was incubated with human IgG or BSA (230 μM) then diluted 8× with 100 mM competitor rhamnose spiked kinetics buffer and loaded onto streptavidin probes in BLI. The association plateau was plotted against time to yield the % labeled vs time covalent labeling curve C. Kinetic fluorescence SDS-PAGE assay similar to that in Figure 2D. […]

BSA = biological target: T1, BSA (Bos taurus, UniProt P02769); experiment: BLI monitoring of covalent reaction, BSA control; format: binding; conditions: 10 μM cARM, 230 μM BSA in lieu of IgG
T1 construct: purchased Sigma Aldrich A9576-50ML
Source text: as §1, §2

## C[C@H](O)[C@H](O)[C@@H](O)[C@@H](O)C=O [rhamnose, L-rhamnose]
anti-23F antibody [1]
  Kd: ~15 µM

## C[C@@H]1O[C@@H](OCCNC(=O)C(CCCCNC(=O)OCCOCCOCCOCCOCCOCCOCCOCCNC(=O)CCCC[C@@H]2SC[C@@H]3NC(=O)N[C@@H]32)NC(=O)c2cccc(S(=O)(=O)F)c2)[C@H](O)[C@H](O)[C@H]1O (some centres unmarked) [compound 12]
anti-23F antibody [2]
  site of labelling (LC-MS/MS peptide mapping): only lysine 104 of antibody heavy chain
anti-23F antibody [2]; post MS protocol
  labelling by intact MS: ~30%
[3]
  reaction time to plateau of labeled antibody signal: ≤ 10 h
BSA
  loading/labeling with BSA: minimal loading/labeling
